From US20190374505A1, “METHODS AND COMPOSITIONS FOR THE TREATMENT OF NON-ALCOHOLIC STEATOHEPATITIS” (Vivus, Inc., priority 2016, published 2019)
Where “and” joins values, the source holds several entries; their conditions need not be identical. Equal values may be shown once.

Experiments:
Type in all cases: in vivo, mouse
STAM model mice (NASH) [1] = experiment: STAM model mice: liver histopathology (HE/NAS, Sirius red, Oil red, F4/80)
Description: (§1) Having observed the improvements in markers that correlate with liver disease in patients treated with PHEN/TPM, animal studies in the STAM model for NAFLD/NASH were preformed to look more specifically at liver morphology and function following treatment with PHEN/TPM. The STAM model was selected because it allows a specific examination of the effects of drug treatment, in this example PHEN/TPM, on non-alcoholic steatohepatitis. The STAM model is a non-genetic animal model of human NASH with features of diabetic background, increased. NAFLD activity score (NAS), perivenular and pericellular fibrosis in Zone 3, and a high incidence of hepatocellular carcinoma (Fujii M. et al., Med. Mel. Morphol., 2013; 46: 141). The model is induced by a combination of chemical and dietary interventions in the mice. In this example, NASH was induced in 30 male mice by a single subcutaneous injection of 200 μg streptozotocin (STZ, Sigma-Aldrich, USA) solution 2 days after birth and feeding with a high fat diet (HFD, 57 kcal % fat, cat#: HFD32, CLEA Japan, Japan) after 4 weeks of age. The mice were treated with either vehicle, PHEN/TPM or Telmisartan.
(§2) Phentermine (PHEN) and Topiramate (TPM) were weighed and dissolved in distilled water and 0.5% methylcellulose, respectively. Telmisartan (MICARDIS®) was purchased from Boehringer Ingelheim GmbH (Germany) and suspended in milli-Q water. Vehicle, PHEN and TPM were orally administered in a volume of 5 mL/kg. Telmisartan was orally administered in a volume of 10 mL/kg. PHEN was administered at a dose of 15 mg/kg once daily. TPM was administered at a dose of 100 mg/kg once daily. Telmisartan was administered at a dose of 5 mg/kg once daily.
Histopathology analysis. For HE staining, sections were cut from paraffin blocks of liver tissue prefixed in Bouin's solution and stained with Lillie-Mayers Hematoxylin (Muto Pure Chemicals, japan) and eosin solution (Wako Pure Chemical industries). NAS was calculated according to the criteria of Kleiner (Kleiner D E. et al., Hepatology, 2005; 41: 1313). To visualize collagen deposition, Bouin's fixed liver sections were stained using picro-Sirius red solution (Waldeck, Gelman)). To visualize macro- and microvesicular fat, sections were cut from frozen liver tissues embedded in Tissue-Tek O.C.T. compound (Sakura Finetek Japan, Japan), and stained with Oil Red 0 (SigmaAldrich). For immunohistochemistry, sections were cut from frozen liver tissues embedded in Tissue-Tek O.C.T. compound and fixed in acetone. Endogenous peroxidase activity was blocked using 0.03% H2O2 for 5 minutes, followed by incubation with Block Ace (Dainippon Sumitomo Pharma, Japan) for 10 minutes. The sections were incubated with a 200-fold dilution of anti-F4/80 antibody (BMA Biomedicals, Switzerland) 1 hour at room temperature. After incubation with secondary antibody (HRP-Goat anti-rat antibody, Invitrogen, USA), enzyme-substrate reactions were performed using 3, 3′-diaminobenzidine/H202 solution (Nichirei, Japan). For quantitative analyses of fibrosis, inflammation and fat deposition areas, bright field images of Sirius red-stained, F4/80-immunostained and oil red-stained sections were captured around the central vein using a digital camera (DFC280; Leica, Germany) at 200-fold magnification, and the positive areas in 5 fields/section were measured using ImageJ software (National Institute of Health, USA).
(§3) The three treatment groups were as follows: Group 1: Vehicle: 10 NASH mice were orally administered vehicle [distilled water and 0.5% methylcellulose in a volume of 5 mL./kg, respectively] once daily from 5 to 11 weeks of age. Group 2: PHEN/WM. 10 NASH mice were orally administered distilled water supplemented with PHEN at a dose of 15 mg/kg, and 0.5% methylcellulose supplemented with TPM at a dose of 100 mg/kg once daily from 5 to 11 weeks of age. Group 3: Telmisartan. […]

STAM model mice (NASH) [2] = experiment: STAM model mice: blood biochemistry and liver triglyceride content; settings: day of sacrifice, mean ± SD
Description: as §1
Phentermine (PHEN) and Topiramate (TPM) were weighed and dissolved in distilled water and 0.5% methylcellulose, respectively. Telmisartan (MICARDIS®) was purchased from Boehringer Ingelheim GmbH (Germany) and suspended in milli-Q water. Vehicle, PHEN and TPM were orally administered in a volume of 5 mL/kg. Telmisartan was orally administered in a volume of 10 mL/kg. PHEN was administered at a dose of 15 mg/kg once daily. […]
Measurement of blood biochemistry. Non-fasting blood glucose was measured in whole blood using LIFE CHECK (EIDrA, Japan). […] The plasma ALT (alanine aminotransferase) and AST (aspartate aminotransferase) levels were measured by FUJI DRI CHEM 7000 (FujiFilm, Japan) Measurement of liver triglyceride content Liver total lipid-extracts were obtained by Folch's method (Folch J. el al., J. Bioi. Chern. 1957; 226: 497). […] Liver triglyceride levels were measured by Triglyceride E-test (Wako Pure Chemical Industries, Japan). […]

[3] = test system: liver mRNA of TNF-α, TIMP-1, Alpha-SMA, MMP-9, collagen type 1, MCP-1; experiment: STAM model mice: liver gene expression analysis (real-time PCR, normalized to 36B4); settings: vehicle average = 1.0, mean ± SD
Description: as §1, §2
Total RNA was extracted from liver samples using RNAiso (Takara Bio, Japan) and SV total RNA isolation kit (Promega, USA) according to the manufacturer's instructions. One/1 g of RNA was reverse-transcribed using a reaction mixture containing 4.4 mM MgCb (F. Hoffmann-La Roche, Switzerland), 40 U RNase inhibitor (Toyobo, Japan), 0.5 mM dNTP (Promega), 6.28 µM random hexamer (Promega), 5× first strand buffer (Promega), 10 mM dithiothreitol (Invitrogen, USA) and 200 U MMLV-RT (Invitrogen) in a final volume of 20 IIL. The reaction was carried out for 1 hour at 37° C., followed by 5 minutes at 99° C. Real-time PCR was performed using real-time PCR DICE and SYBR premix Tag (Takara Bio). To calculate the relative mRNA expression level, the expression of each gene was normalized to that of reference gene 36B4 (gene symbol: RplpO). To express data as fold-change relative to the Vehicle-control group, the data were standardized so that average values of the Vehicle group become 1.0.
The three treatment groups were as follows: Group 1: Vehicle: 10 NASH mice were orally administered vehicle [distilled water and 0.5% methylcellulose in a volume of 5 mL./kg, respectively] once daily from 5 to 11 weeks of age. Group 2: PHEN/WM. 10 NASH mice were orally administered distilled water supplemented with PHEN at a dose of 15 mg/kg, and 0.5% methylcellulose supplemented with TPM at a dose of 100 mg/kg once daily from 5 to 11 weeks of age. Group 3: Telmisartan. 10 NASH mice were orally administered pure water supplemented with Telmisartan at a dose of 5 mg/kg once daily from 5 to 11 weeks of age.
The values in Table 7 were calculated by dividing Target by 36B4 for each animal. An average was calculated in the vehicle group. The initial calculations of Target/36B4 was divided by the vehicle average so the vehicle average becomes 1.0. This second Target/36B4 represents a fold-change of Target gene relative to the vehicle average.

STAM model mice (NASH) [4] = experiment: STAM model mice: viability, body weight, food consumption, liver weight
Description: as §1, §2
C57BL16 mice (15-day-pregnant female) were obtained from Japan SLC (Japan) and were housed in accordance with the Japanese Pharmacological Society Guidelines for Animal Use. The animals were maintained in a SPF facility under controlled conditions of temperature (23±2° C.), humidity (45±10%), lighting (12-hour artificial light and dark cycles; light from 8:00 to 20:00) and air exchange. A high pressure was maintained in the experimental room to prevent contamination of the facility. The animals were housed in TPX cages (CLEA Japan) with a maximum of 4 mice per cage. Sterilized Paper-Clean (Japan SLC) was used for bedding and replaced once a week.
Sterilized solid HFD was provided ad libitum, being placed in a metal lid on the top of the cage. Pure water was provided ad libitum from a water bottle equipped with a rubber stopper and a sipper tube. Water bottles were replaced once a week, cleaned and sterilized in an autoclave and reused. Mice were identified by numbers engraved on earrings. Each cage was labeled with a specific identification code.
as §3
The viability, clinical signs and behavior were monitored daily. […]
The body weight of each mouse was recorded daily and food consumption was recorded 3 times weekly during the treatment period. […]

[5] = day of sacrifice, mean ± SD, PHEN 15 + TPM 100 mg/kg (n=6), Telmisartan 5 mg/kg (n=8)

SMILES: CCCc1nc2c(C)cc(-c3nc4ccccc4n3C)cc2n1Cc1ccc(-c2ccccc2C(=O)O)cc1 [Telmisartan]
- Fibrosis area (Sirius-red) (STAM model mice (NASH) [1]; mean ± SD): 0.81% and 0.81 ± 0.39%
- Inflammation area (F4/80) (STAM model mice (NASH) [1]; mean ± SD): 1.48 ± 0.76%
- Number of mice with Steatosis score 0 (STAM model mice (NASH) [1]; score 0 = <5%): 2
- Number of mice with Lobular Inflammation score 0 (STAM model mice (NASH) [1]; score 0 = No foci): 2
- Number of mice with Steatosis score 1 (STAM model mice (NASH) [1]; score 1 = 5-33%): 6
- Number of mice with Lobular Inflammation score 1 (STAM model mice (NASH) [1]; score 1 = <2 foci/200x): 2
- Number of mice with Hepatocyte Ballooning score 1 (STAM model mice (NASH) [1]; score 1 = Few balloon cells): 4
- Number of mice with Lobular Inflammation score 2 (STAM model mice (NASH) [1]; score 2 = 2-4 foci/200x): 4
- Number of mice with Hepatocyte Ballooning score 2 (STAM model mice (NASH) [1]; score 2 = Many cells/prominent ballooning): 4
- Plasma ALT (STAM model mice (NASH) [2]): 39 U/L and 39 ± 34 U/L
- Plasma AST (STAM model mice (NASH) [2]): 229 U/L and 229 ± 176 U/L
- Whole blood glucose (STAM model mice (NASH) [2]; non-fasting): 768 mg/dL and 768 ± 199 mg/dL
- Alpha-SMA/36B4 mRNA expression, fold change relative to Vehicle group [3]: 0.54 and 0.54 ± 0.40
- Collagen Type 1/36B4 mRNA expression, fold change relative to Vehicle group [3]: 0.80 and 0.80 ± 0.11
- MCP-1/36B4 mRNA expression, fold change relative to Vehicle group [3]: 0.44 and 0.44 ± 0.23
- MMP-9/36B4 mRNA expression, fold change relative to Vehicle group [3]: 1.21 and 1.21 ± 0.36
- TIMP-1/36B4 mRNA expression, fold change relative to Vehicle group [3]: 0.66 and 0.66 ± 0.46
- TNF-α/36B4 mRNA expression, fold change relative to Vehicle group [3]: 0.75 and 0.75 ± 0.17
- Mean body weight reduced compared to the Vehicle group (STAM model mice (NASH) [4]; day of sacrifice): 11.4%
- Liver-to-body weight ratio (STAM model mice (NASH) [4]; day of sacrifice, mean ± SD): 6.2 ± 1.1%
- Body weight (STAM model mice (NASH) [4]; [5]): 18.7 g and 18.7 ± 1.7 g
- Liver weight (STAM model mice (NASH) [4]; [5]): 1156 ± 210 mg
- Mice found dead before reaching week 11 (STAM model mice (NASH) [4]; treatment period 5 to 11 weeks of age, oral once daily, PHEN 15 mg/kg + TPM 100 mg/kg, Telmisartan 5 mg/kg): Two out of 10
